For experiment [1], the system named is S. cereviseae BY4742. Kind of experiment: GFP destabilization/re-stabilization assay of TetR::AcGFP fusions in yeast liquid culture +/- atc. Type of experiment: cell-based, Saccharomyces cereviseae. The note with it: TetR::AcGFP fusion, galactose induced, 6 hrs growth, FIG. 3. From the text:
The third mutation, 122D (Reichheld and Davidson 2006), is a constitutive mutation in the presence or absence of ligand. Both L17G and I22D lie in the DNA binding domain (DBD) whereas G96R is in alpha helix 6 within the ligand binding domain (LBD). To test the effect of these mutations for ligand gated stability a GFP destabilization/re-stabilization assay (FIG. 1) was created. To do this a fusion between the coding regions of TetR B (Wray et al. 1981) and AcGFP (Gurskaya et al. 2003) by PCR amplifying the TetR region from plasmid pVER7568 using primers REPS' and TetR::AcGFP Rev and the AcGFP coding region from plasmid pHD1010 with primers TetR::AcGFP For and AcGFP3′ (Table 2) was created. The PCR products were then combined and subjected to overlap extension PCR using primers REPS' and AcGFP3′. The resulting full length PCR fusion product was then cloned into the Galactose inducible yeast expression vector p415GAL (ATCC#87330) as an XbaI/HindIII fragment. […] 100 ul aliquots of resuspended cells were placed into clear bottom black 96-well plates and their fluorescence determined with a Typhoon Laser Image Scanner (GE: […]). […]

In experiment [2] the test system is S. cereviseae BY4742. Nature of the experiment: GFP fluorescence of wt and L17G repressor::GFP fusions in yeast on agar +/- atc, ethametsulfuron or chlorsulfuron, incl. dose response. It counts as cell-based, Saccharomyces cereviseae. The note with it: 5-10 uM atc, destabilized (L17G) fusion, FIG. 7. From the text: Next, we wanted to determine if a similar ligand enhanced protein accumulation effect would translate to our SU repressor backbones. […] Given the number of changes to the parent sequence and the 100% change in ligand preference it was not clear if they would behave in a similar manner. […] This was done by PCR amplifying the above coding regions with primers REPS' and EsR(L3-23) Rev, EsR(L15-20) Rev, or CsR(L4-20) Rev (Table 2), digesting each PCR product with StuI/BamHI and cloning each product into StuI/BamHI digested backbone fragments of pHD1184 and pHD2012 to give both wt and L17G mutant DNA binding domain combinations, respectively for most of the SuR's (schematic in FIG. 4). The resulting vectors (Table 4) were then transformed into S. cereviseae BY4742 as for pHD1184 (above). Each strain was then grown overnight in YPD medium and the cultures arrayed in 96-well format such that there were four repeats of every strain per plate. The array was then stamped onto 40 ml DOBA agar supplemented with 2% galactose, 0.025% casamino acids, and either 10 uM atc, ethametsulfuron, chlorsulfuron or no addition as the control. The plates were grown two days at 30° C. and imaged using a Typhoon laser scanning imager (GE) with excitation and emission set at 488 and 520 nm respectively. […]

This is an account of results in patent US20160326540A1, “Methods and Compositions Employing a Sulfonylurea-Dependent Stabilization Domain” (PIONEER HI-BRED INTERNATIONAL, INC., priority 2013, published 2016).

As to TetR(G96R), in the experiment on S. cereviseae BY4742 [1], the “accumulation of GFP compared to wt TetR” value was “significant negative impact”. TetR(L17G): in the experiment with S. cereviseae BY4742 [1], the “accumulation of GFP compared to wt TetR” value is “significant negative impact”. For the same substance, the “GFP response to ligand (dose response)” value in the experiment with S. cereviseae BY4742 [2] is reported as ~10 ×.
